Measured values: article PMC3639963, “A New Class of Small Molecule Inhibitor of BMP Signaling” (PLoS ONE, 2013)

How the values were obtained:
Assay in all cases: Nanosyn kinase profiling
Format in all cases: biochemical
Settings in all cases: read-out: Percentage inhibition; for inhibition at 0.1 µM: 0.1 µM inhibitor; for inhibition at 1 µM: 1 µM inhibitor
ARK5 = biological target: T1, ARK5 (Homo sapiens, UniProt O60285)
T1 construct: purchased Nanosyn (enzymatic panel); SGC in-house recombinant human kinases (DSF panel); Invitrogen (ALK1-6)
T1 sequence (O60285 1-661): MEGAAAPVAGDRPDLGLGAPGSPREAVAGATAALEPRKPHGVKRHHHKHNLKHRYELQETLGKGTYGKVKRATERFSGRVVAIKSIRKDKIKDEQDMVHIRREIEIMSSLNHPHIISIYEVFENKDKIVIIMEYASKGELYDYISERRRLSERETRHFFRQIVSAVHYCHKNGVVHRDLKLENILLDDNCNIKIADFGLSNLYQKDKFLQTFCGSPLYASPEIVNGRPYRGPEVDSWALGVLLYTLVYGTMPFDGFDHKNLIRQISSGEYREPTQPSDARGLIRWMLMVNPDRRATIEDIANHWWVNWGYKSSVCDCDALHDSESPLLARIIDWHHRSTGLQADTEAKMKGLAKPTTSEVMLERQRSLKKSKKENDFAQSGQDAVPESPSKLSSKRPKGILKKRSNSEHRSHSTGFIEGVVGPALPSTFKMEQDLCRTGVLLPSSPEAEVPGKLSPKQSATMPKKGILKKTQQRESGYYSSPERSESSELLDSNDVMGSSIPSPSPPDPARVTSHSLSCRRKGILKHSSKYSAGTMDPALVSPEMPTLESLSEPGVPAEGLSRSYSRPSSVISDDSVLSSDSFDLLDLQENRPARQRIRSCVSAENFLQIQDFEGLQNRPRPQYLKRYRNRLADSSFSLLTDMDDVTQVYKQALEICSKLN
Method in brief: (§1)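 Percent inhibition of each kinase was measured with the inhibitor at 0.1 µM and at 1 µM, as part of a 200-kinase human selectivity panel.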

FES = biological target: T2, FES (Homo sapiens, UniProt P07332)
T2 construct: purchased Nanosyn (enzymatic panel); SGC in-house recombinant human kinases (DSF panel); Invitrogen (ALK1-6)
T2 sequence (P07332 whole entry): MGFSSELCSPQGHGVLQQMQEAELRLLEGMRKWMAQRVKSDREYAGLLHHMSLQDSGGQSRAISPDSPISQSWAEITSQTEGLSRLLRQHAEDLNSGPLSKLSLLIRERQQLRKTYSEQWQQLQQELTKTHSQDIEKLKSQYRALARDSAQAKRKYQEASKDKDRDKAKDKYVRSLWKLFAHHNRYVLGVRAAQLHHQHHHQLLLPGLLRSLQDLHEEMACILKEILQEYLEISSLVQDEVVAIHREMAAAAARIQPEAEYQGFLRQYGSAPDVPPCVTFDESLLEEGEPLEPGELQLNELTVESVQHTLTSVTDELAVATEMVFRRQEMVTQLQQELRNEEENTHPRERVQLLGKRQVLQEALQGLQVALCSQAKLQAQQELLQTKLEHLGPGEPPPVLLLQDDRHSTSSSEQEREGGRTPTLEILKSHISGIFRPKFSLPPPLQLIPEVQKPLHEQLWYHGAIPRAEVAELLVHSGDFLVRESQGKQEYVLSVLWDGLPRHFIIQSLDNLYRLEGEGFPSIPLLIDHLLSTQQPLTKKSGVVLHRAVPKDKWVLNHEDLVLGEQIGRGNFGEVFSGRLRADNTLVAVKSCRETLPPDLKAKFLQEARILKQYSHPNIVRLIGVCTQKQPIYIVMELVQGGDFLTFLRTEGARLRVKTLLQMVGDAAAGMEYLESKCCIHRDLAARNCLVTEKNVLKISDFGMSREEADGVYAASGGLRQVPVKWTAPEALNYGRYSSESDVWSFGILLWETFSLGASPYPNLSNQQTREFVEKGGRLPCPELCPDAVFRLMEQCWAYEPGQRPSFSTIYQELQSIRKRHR
Method in brief: as §1

HCK = biological target: T3, HCK (Homo sapiens, UniProt P08631)
T3 construct: purchased Nanosyn (enzymatic panel); SGC in-house recombinant human kinases (DSF panel); Invitrogen (ALK1-6)
T3 sequence (P08631 whole entry): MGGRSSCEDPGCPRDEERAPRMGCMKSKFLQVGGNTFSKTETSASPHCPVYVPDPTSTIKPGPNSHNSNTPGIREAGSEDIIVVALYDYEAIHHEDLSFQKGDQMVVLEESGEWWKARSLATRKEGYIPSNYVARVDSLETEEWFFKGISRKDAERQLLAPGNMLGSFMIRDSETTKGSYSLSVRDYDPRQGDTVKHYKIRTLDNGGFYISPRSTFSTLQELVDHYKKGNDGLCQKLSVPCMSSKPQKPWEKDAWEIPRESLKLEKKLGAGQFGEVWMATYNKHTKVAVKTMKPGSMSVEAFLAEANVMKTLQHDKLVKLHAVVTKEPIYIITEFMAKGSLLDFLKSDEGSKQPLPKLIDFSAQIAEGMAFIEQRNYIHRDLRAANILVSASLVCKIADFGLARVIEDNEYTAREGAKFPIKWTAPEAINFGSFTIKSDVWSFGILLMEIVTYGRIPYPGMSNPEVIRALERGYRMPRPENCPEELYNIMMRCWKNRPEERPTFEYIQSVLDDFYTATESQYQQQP
Method in brief: as §1

MAP4K2 = biological target: T4, MAP4K2 (Homo sapiens, UniProt Q12851)
T4 construct: purchased Nanosyn (enzymatic panel); SGC in-house recombinant human kinases (DSF panel); Invitrogen (ALK1-6)
T4 sequence (Q12851 1-820): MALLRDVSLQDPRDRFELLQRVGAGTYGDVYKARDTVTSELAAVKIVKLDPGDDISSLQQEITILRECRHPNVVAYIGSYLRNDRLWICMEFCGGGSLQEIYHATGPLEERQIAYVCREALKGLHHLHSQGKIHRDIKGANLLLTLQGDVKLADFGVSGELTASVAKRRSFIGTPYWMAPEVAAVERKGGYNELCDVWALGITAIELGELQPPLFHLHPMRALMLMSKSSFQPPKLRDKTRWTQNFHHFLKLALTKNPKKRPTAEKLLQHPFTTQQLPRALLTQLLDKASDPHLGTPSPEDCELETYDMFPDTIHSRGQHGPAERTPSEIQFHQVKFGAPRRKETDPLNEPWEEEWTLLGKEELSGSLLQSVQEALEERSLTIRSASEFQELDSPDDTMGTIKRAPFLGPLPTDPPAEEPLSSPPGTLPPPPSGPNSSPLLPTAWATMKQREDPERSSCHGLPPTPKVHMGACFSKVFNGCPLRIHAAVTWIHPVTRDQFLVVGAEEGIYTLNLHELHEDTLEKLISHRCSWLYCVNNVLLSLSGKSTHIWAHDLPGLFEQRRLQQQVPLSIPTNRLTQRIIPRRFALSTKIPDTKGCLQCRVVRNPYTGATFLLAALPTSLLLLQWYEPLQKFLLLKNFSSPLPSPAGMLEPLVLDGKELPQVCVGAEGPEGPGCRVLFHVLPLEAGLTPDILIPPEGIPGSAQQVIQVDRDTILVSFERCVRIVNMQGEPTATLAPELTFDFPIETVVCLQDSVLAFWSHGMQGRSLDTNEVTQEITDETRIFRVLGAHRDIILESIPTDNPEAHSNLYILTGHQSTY
Method in brief: as §1

MET = biological target: T5, MET (Homo sapiens, UniProt P08581)
T5 construct: purchased Nanosyn (enzymatic panel); SGC in-house recombinant human kinases (DSF panel); Invitrogen (ALK1-6)
T5 sequence (P08581 25-1390): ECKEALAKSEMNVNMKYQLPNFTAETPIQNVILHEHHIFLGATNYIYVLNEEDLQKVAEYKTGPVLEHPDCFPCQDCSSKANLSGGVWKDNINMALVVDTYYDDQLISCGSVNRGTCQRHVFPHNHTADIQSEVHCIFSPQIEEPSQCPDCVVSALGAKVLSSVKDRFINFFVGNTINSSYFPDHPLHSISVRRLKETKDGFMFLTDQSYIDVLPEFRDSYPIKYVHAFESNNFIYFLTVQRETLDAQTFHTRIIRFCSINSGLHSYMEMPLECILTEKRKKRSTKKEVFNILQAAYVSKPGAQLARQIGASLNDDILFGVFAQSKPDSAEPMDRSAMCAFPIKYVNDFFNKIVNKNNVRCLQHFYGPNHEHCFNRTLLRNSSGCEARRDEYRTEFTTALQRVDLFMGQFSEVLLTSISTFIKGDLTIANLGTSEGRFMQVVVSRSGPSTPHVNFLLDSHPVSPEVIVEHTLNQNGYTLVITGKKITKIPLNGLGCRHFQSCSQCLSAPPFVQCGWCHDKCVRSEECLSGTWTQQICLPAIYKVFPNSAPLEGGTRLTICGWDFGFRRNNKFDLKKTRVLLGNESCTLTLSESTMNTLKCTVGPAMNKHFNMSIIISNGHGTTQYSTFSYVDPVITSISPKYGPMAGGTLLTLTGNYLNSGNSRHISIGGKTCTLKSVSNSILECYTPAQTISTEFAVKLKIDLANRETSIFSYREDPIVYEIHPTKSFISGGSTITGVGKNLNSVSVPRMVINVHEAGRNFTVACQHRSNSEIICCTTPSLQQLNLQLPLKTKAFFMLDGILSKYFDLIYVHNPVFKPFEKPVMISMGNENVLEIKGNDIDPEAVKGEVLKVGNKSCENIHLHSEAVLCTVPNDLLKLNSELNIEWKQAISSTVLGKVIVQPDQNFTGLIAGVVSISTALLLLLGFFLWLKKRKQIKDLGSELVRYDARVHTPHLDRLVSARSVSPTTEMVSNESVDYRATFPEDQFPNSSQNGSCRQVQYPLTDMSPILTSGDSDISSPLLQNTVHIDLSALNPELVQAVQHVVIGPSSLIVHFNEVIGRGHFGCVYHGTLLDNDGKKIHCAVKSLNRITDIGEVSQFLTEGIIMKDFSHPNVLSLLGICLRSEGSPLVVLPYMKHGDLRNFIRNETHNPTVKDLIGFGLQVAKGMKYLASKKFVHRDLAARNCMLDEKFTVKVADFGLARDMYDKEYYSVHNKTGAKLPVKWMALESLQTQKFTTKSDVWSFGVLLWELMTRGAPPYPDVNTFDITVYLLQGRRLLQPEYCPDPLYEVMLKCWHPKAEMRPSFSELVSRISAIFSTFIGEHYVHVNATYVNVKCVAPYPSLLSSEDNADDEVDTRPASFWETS
Method in brief: as §1

MSK2 = biological target: T6, MSK2 (Homo sapiens, UniProt O75676)
T6 construct: purchased Nanosyn (enzymatic panel); SGC in-house recombinant human kinases (DSF panel); Invitrogen (ALK1-6)
T6 sequence (O75676 whole entry): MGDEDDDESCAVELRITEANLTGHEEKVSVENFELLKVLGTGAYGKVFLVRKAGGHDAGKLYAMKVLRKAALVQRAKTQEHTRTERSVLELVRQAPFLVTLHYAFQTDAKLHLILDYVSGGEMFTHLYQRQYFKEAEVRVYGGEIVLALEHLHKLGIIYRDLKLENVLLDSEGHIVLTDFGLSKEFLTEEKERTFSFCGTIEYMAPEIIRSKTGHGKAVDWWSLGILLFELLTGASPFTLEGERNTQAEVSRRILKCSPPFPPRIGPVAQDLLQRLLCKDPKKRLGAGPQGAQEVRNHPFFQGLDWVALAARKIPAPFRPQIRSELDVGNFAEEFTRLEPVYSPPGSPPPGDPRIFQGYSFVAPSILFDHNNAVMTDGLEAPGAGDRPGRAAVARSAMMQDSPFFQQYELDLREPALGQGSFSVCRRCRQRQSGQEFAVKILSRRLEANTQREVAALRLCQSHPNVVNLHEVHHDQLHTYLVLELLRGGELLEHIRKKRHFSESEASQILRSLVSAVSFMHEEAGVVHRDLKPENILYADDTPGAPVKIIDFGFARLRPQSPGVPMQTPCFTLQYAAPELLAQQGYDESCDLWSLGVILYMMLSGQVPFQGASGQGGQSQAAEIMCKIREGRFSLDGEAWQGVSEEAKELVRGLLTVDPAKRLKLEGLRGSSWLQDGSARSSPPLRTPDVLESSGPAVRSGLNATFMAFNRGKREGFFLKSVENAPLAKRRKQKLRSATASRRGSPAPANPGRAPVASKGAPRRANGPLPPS
Method in brief: as §1

PRKX = biological target: T7, PRKX (Homo sapiens, UniProt P51817)
T7 construct: purchased Nanosyn (enzymatic panel); SGC in-house recombinant human kinases (DSF panel); Invitrogen (ALK1-6)
T7 sequence (P51817 1-358): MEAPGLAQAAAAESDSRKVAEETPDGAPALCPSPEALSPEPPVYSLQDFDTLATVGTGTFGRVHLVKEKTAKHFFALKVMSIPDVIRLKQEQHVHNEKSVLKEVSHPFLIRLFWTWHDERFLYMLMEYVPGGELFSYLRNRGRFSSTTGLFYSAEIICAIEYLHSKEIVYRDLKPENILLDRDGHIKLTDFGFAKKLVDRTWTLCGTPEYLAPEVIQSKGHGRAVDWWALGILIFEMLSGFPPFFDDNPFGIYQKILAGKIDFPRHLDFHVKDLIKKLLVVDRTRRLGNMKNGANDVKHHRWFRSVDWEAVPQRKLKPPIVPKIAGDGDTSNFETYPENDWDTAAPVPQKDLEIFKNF
Method in brief: as §1

RSK4 = biological target: T8, RSK4 (Homo sapiens, UniProt Q9UK32)
T8 construct: purchased Nanosyn (enzymatic panel); SGC in-house recombinant human kinases (DSF panel); Invitrogen (ALK1-6)
T8 sequence (Q9UK32 whole entry): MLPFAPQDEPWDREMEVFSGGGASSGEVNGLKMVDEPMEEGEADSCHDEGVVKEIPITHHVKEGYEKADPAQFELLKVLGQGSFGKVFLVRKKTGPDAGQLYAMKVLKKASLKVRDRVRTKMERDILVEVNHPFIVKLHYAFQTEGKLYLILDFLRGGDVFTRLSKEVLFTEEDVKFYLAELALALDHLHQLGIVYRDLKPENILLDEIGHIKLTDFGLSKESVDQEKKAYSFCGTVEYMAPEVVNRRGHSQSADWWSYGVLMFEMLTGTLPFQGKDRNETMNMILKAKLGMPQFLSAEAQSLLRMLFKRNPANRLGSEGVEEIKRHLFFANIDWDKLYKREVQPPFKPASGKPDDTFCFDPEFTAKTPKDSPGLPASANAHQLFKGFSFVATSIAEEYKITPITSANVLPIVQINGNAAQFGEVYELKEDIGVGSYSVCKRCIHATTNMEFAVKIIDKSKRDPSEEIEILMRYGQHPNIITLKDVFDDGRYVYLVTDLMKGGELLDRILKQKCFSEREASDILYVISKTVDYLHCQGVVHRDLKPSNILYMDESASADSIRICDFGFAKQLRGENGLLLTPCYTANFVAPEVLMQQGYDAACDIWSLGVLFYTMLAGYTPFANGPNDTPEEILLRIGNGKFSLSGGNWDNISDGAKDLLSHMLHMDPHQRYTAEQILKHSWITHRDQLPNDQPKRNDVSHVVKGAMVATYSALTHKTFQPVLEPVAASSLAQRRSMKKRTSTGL
Method in brief: as §1

SGK1 = biological target: T9, SGK1 (Homo sapiens, UniProt O00141)
T9 construct: purchased Nanosyn (enzymatic panel); SGC in-house recombinant human kinases (DSF panel); Invitrogen (ALK1-6)
T9 sequence (O00141 1-431): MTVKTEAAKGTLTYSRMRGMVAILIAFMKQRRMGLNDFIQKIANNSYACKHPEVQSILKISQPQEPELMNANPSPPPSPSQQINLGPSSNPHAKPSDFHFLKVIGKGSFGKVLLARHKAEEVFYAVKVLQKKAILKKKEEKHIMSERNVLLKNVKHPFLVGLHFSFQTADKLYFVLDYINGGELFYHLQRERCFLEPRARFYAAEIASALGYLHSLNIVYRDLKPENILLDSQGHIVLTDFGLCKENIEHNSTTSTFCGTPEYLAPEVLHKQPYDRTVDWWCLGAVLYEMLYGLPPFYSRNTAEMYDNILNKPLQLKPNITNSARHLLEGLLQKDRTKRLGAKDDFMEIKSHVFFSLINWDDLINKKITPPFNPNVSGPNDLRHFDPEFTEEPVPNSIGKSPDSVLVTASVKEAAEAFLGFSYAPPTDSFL
Method in brief: as §1

Row | Structure (SMILES) | inhibition at 0.1 µM (ARK5) [%] | inhibition at 1 µM (ARK5) [%] | inhibition at 0.1 µM (FES) [%] | inhibition at 1 µM (FES) [%] | inhibition at 0.1 µM (HCK) [%] | inhibition at 1 µM (HCK) [%] | inhibition at 0.1 µM (MAP4K2) [%] | inhibition at 1 µM (MAP4K2) [%] | inhibition at 0.1 µM (MET) [%] | inhibition at 1 µM (MET) [%] | inhibition at 0.1 µM (MSK2) [%] | inhibition at 1 µM (MSK2) [%] | inhibition at 0.1 µM (PRKX) [%] | inhibition at 1 µM (PRKX) [%] | inhibition at 0.1 µM (RSK4) [%] | inhibition at 1 µM (RSK4) [%] | inhibition at 0.1 µM (SGK1) [%] | inhibition at 1 µM (SGK1) [%]
1 | COc1cc(-c2cc(-c3cccc(O)c3)cnc2N)cc(OC)c1OC [K02288, 3-[6-amino-5-(3,4,5-trimethoxy-phenyl)-pyridin-3-yl]-phenol] | 1.1 | 4.1 | -1 | -1 | 8.9 | 51 | 18 | 53 | 0.6 | -2 | -1 | 1 | -1 | -1 | 0.1 | 1 | 1.1 | -2
2 | c1ccc2c(-c3cnn4cc(-c5ccc(N6CCNCC6)cc5)cnc34)ccnc2c1 [LDN-193189] | 16 | 56 | 2.2 | 2.4 | 9.7 | 33 | 21 | 65 | 6.2 | 8.4 | 0.9 | 0.8 | 0.2 | 1.2 | 0.8 | 3.8 | 1.1 | 0.8
